The results in this text go back to patent publication EP4790066A1, “GLP-1R/GIPR/GCGR TRIPLE AGONIST ANALOGUE AND USE THEREOF” (Shenzhen Bay Laboratory, priority 2023, dated 2025).

Data set [1] has as its target T1, GCGR (Homo sapiens, UniProt P47871).
T1 construct: expressed in transfected cells
Put plainly: CreLuc method (CRE-luciferase reporter), 293HEK/pGM-CREB-L-Luc/GCGR pool. The class given is cell-based. The note with it: 6 h incubation, read-out: EC50 (pM) for each receptor GCGR. In short, it runs like this:
(§1)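 Stable HEK293 pools co-expressing each receptor with a CRE-luciferase reporter were plated at 20,000 cells/well in freestyle medium and treated with compound dilution series for 6 h at 37 °C. Luminescence was read with ONE-GLO to derive EC50.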
Background: A reporter such as luciferase makes a cellular process visible.

Data set [2] addresses T2, GLP-1R (Homo sapiens, UniProt P43220).
T2 construct: expressed in transfected cells
As to the kind of experiment: cAMP method (HTRF cAMP detection kit), HEK293/pGM-CREB-L-Luc/GLP-1 pool. The format is cell-based. The note with it: read-out: EC50 (pM) for each receptor GLP-1R.

A further data set concerns the target T3, GIPR (Homo sapiens, UniProt P48546).
T3 construct: expressed in transfected cells
T3 sequence (P48546 22-466): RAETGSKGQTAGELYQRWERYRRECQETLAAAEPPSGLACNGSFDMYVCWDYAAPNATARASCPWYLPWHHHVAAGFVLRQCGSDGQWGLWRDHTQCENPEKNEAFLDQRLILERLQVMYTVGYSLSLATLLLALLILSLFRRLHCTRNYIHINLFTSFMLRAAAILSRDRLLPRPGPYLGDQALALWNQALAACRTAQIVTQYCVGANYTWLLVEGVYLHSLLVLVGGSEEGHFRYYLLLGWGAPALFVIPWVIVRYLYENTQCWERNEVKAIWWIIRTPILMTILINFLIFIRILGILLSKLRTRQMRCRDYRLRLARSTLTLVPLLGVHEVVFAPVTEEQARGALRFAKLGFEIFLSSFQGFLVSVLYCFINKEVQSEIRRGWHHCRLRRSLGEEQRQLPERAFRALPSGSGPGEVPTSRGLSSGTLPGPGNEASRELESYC
Put plainly: CreLuc method (CRE-luciferase reporter), HEK293/pGM-CREB-L-Luc/GIPR pool. The note with it: 6 h incubation, read-out: EC50 (pM) for each receptor GIPR. The format is cell-based. A digest of the protocol: as §1

A further data set can be described thus: in vivo. Details: species or system adult male cynomolgus monkeys. The note with it: male, cynomolgus monkey, 0.2 mg/kg. The protocol: The pharmacokinetic behavior of TG52 in non-rodents was tested. The specific steps are as follows:
The target peptide derivative TG52 to be tested was administered to adult male cynomolgus monkeys via subcutaneous and intravenous injections (0.2 mg/kg, with PBS as the drug vehicle) as a single dose, respectively. Whole blood samples were collected from the jugular vein or other appropriate vein at the following time points after administration: for SC, 0 min, 30 min, 1 h, 3 h, 7 h, 24 h, 48 h, 72 h, 120 h, 168 h, 216 h, and 264 h; for IV, 0 min, 5 min, 30 min, 1 h, 3 h, 7 h, 24 h, 48 h, 72 h, 120 h, 168 h, 216 h, and 264 h. 0.2 mL of blood was collected and transferred into a labeled EDTA-K2 anticoagulant tube. The tube was gently inverted to ensure thorough mixing of the anticoagulant (EDTA-K2) with the blood and immediately placed on wet ice. Plasma separation was performed as soon as possible by centrifugation under the following conditions: 4°C, 6800xg, for 6 min. The plasma samples were stored in a refrigerator at no higher than -20°C and used for analysis when needed. Analysis of the drug content in the blood samples was performed using the analytical method described above. Table 5C: Pharmacokinetic parameters of TG52 in cynomolgus monkeys

Data set [3] has as its target T1, GCGR. Put plainly: cAMP method (HTRF cAMP detection kit), HEK293/pGM-CREB-L-Luc/GCG pool. The class given is cell-based. The note with it: read-out: EC50 (pM) for each receptor GCGR. Background: Time-resolved FRET reads energy transfer from a long-lived donor to a nearby acceptor.
The target of data set [4] is T2, GLP-1R. As to the kind of experiment: CreLuc method (CRE-luciferase reporter), HEK293/pGM-CREB-L-Luc/GLP-1R pool. The class given is cell-based. The note with it: 6 h incubation, read-out: EC50 (pM) for each receptor GLP-1R. A digest of the protocol: as §1

*1 amine or outer side, *2 acyl side, *3 side chain or, on linkers, in order; H or OH if unused. Where a SMILES comes first, the peptide text is derived from it. Bridges are numbered along the chain shown (N, C = ends). [ ]: non-standard residue; d: D form. X1 = O=C(O)CCCCCCCCCCCCCCCCCCC(=O)N[C@@H](CCCCNC(=O)COCCOCCNC(=O)COCCOCCNC(=O)CCC(=O)N(CCNC(=O)C[*:1])CCNC(=O)C[*:2])C(=O)O; Phe(2-F) = N[C@@H](Cc1ccccc1F)C(=O)O; Iva = CC[C@](C)(N)C(=O)O; Aib = CC(C)(N)C(=O)O

T1 sequence (P47871 26-477, species assumed): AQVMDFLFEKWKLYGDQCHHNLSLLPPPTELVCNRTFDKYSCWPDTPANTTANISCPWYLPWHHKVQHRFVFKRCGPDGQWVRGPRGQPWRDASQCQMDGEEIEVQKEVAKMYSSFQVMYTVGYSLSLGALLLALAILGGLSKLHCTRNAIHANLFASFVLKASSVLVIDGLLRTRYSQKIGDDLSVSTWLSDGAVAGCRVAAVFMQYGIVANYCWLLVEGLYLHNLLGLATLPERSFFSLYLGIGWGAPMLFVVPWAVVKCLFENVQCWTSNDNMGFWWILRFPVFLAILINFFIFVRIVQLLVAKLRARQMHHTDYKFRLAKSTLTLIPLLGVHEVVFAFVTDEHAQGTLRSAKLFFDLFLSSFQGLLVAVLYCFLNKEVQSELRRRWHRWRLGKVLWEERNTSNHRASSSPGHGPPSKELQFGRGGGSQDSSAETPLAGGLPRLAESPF
T2 sequence (P43220 24-463, species assumed): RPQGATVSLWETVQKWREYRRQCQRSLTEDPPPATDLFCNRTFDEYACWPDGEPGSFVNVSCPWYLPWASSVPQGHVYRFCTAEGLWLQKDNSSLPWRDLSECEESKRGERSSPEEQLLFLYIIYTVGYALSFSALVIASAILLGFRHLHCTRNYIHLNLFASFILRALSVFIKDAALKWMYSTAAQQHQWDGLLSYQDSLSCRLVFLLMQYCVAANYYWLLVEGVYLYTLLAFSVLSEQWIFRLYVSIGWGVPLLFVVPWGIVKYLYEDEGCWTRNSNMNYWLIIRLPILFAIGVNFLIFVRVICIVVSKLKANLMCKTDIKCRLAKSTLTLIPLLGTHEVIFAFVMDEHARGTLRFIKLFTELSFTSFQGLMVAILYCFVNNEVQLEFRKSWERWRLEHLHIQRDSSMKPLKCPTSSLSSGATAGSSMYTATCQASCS

Regarding `CC[C@H](C)[C@@H]1NC(=O)[C@H](Cc2ccccc2)NC(=O)[C@@H](NC(=O)C(C)(C)NC(=O)[C@H](CCC(N)=O)NC(=O)[C@H](C)NC(=O)[C@H](CCCCNC(C)=O)NC(=O)[C@H](CCCCN)NC(=O)[C@H](CC(=O)O)NC(=O)[C@H](CC(C)C)NC(=O)[C@](C)(CC)NC(=O)[C@@H](NC(=O)[C@H](CO)NC(=O)[C@H](Cc2ccc(O)cc2)NC(=O)[C@H](CC(=O)O)NC(=O)[C@H](CO)NC(=O)[C@@H](NC(=O)[C@H](Cc2ccccc2F)NC(=O)[C@@H](NC(=O)CNC(=O)[C@H](CCC(N)=O)NC(=O)C(C)(C)NC(=O)[C@@H](N)Cc2ccc(O)cc2)[C@@H](C)O)[C@@H](C)O)[C@@H](C)CC)CSCC(=O)NCCN(C(=O)CCC(=O)NCCOCCOCC(=O)NCCOCCOCC(=O)NCCCC[C@H](NC(=O)CCCCCCCCCCCCCCCCCCC(=O)O)C(=O)O)CCNC(=O)CSC[C@@H](C(=O)NCC(=O)NCC(=O)N2CCC[C@H]2C(=O)N[C@@H](CO)C(=O)N[C@@H](CO)C(=O)NCC(=O)N[C@@H](C)C(=O)N2CCC[C@H]2C(=O)N2CCC[C@H]2C(=O)N2CCC[C@H]2C(=O)N[C@@H](CO)C(N)=O)NC(=O)[C@H](CC(C)C)NC(=O)[C@H](CC(C)C)NC(=O)[C@H](Cc2ccc(O)cc2)NC(=O)[C@H](CCC(=O)O)NC1=O` [TG52] (H-Y[Aib]QGT[Phe(2-F)]TSDYSI[Iva]LDKK(Ac)AQ[Aib]CFIEYLLCGGPSSGAPPPS-NH2; linker 21-28 via X1), the EC50 (commonly the concentration needed to bring the measured effect to its halfway point) on GCGR [1] was found to be 173 pM. Besides, on GLP-1R [2], the concentration giving a half-maximal response (EC50) is 4.1 pM. The concentration for a half-maximal effect (EC50) at GIPR turned out to be 18.9 pM. In the data set “in vivo” (iv), the AUC(0-inf) (in general, total exposure, with the tail of the curve extrapolated) came to 302 µg·h/mL; the AUC(0-t) – broadly, exposure summed from dosing to a finite time, without extrapolation to infinity – worked out at 278 µg·h/mL; the Vd (as a rule, the apparent volume that relates the amount in the body to the concentration in plasma or blood) was 0.0626 L/kg; the clearance (as a rule, the rate of elimination divided by the concentration) was 16 mL/day/kg. Also, the half-life (as a rule, the time needed for the level to fall by half in the phase considered) in the data set “in vivo” (iv) is 3.68 days. Also, in the data set “in vivo” (sc), the AUC(0-t) amounted to 199 µg·h/mL; the maximum concentration (Cmax) – broadly, the highest concentration seen after dosing – was found to be 1760 ng/mL; the time of peak concentration (Tmax) – broadly, the time from dosing to the highest level – was 18.3 h; the bioavailability – broadly, dose-corrected exposure relative to a reference, in per cent – was 75.7%. This compound had a half-life in the data set “in vivo” (sc) of 4.05 days. Moreover, the concentration for a half-maximal effect (EC50) on GCGR [3] came to 8.8 pM. Further, at GLP-1R [4], the concentration giving a half-maximal response (EC50) turned out to be 112 pM.
